Among the data in PubChem BioAssay (NCI) are GI50 and TGI values, retold here.

“And” between values parts separate entries of the source, which are not always exact repeats. Identical values can stand only once.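 48-hour exposure; five concentrations; linearly interpolated endpoints. GI50: concentration for 50% inhibition of growth. TGI: concentration producing complete growth inhibition.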

Holding throughout (test): NCI-60 cell line screen, 48 h
Experiment [1] has as its system UACC-62 melanoma.
The subject of experiment [2] is CAKI-1 renal.
The test system of experiment [3] is SK-MEL-5 melanoma.
In experiment [4] the test system is HCT-15 colon.
In experiment [5] the test system is MDA-MB-231 breast.
The subject of experiment [6] is SF-295 CNS.
Experiment [7] concerns RXF 393 renal.
The subject of experiment [8] is SK-OV-3 ovarian.
In experiment [9] the test system is LOX IMVI melanoma.
For experiment [10], the system named is HOP-92 NSCLC.

As for `COc1cc(C(=O)Nc2cc(O)c(C/C=C(\C)CCC=C(C)C)c(O)c2)cc2c1O[C@]1(C)CC[C@@H](O)C(C)(C)[C@H]1C2`, the GI50 in [1] is 0.0488 µM and 0.0463 µM; in [2] it was 0.0394 µM; in experiment [3], 0.177 µM and 0.631 µM; in experiment [4] it was 0.471 µM and 0.628 µM; in [5], 1.01 µM and 0.461 µM; in [6], 0.00307 µM and < 0.012 µM. For the same molecule, the GI50 in [7] is 0.00419 µM; in experiment [8], 0.0926 µM and 0.114 µM; in experiment [9], 0.0626 µM and 0.0809 µM; in experiment [10] it was 0.237 µM and 0.173 µM. For the same molecule, the TGI is 0.803 µM and 1.79 µM in experiment [1]; 11.9 µM in experiment [2]; 2.1 µM and 3.99 µM in experiment [3]; 3.38 µM and 3.37 µM in [4]; 5.53 µM and 5.34 µM in [5]; 0.0135 µM and 0.0515 µM in experiment [6]. For the same molecule, the TGI is 0.0809 µM and 0.17 µM in [7]; 22.7 µM in [8]; 2.7 µM and 1.92 µM in experiment [9]; 8.13 µM and 4.79 µM in experiment [10].
Consider `COc1ccc(OC)c(-c2cc(C(=O)O)c3cc4ccccc4cc3n2)c1`, for which the TGI in experiment [1], in [2], in [3], in experiment [4], in [5] and in experiment [6] was more than 100 µM in each case. Also, the TGI in experiment [7], in [8], in [9] and in experiment [10] was more than 100 µM each time.
As for `Nc1ncnc2c1c(C(=O)NO)cn2C1OC(CO)C(O)C1O` (centres undefined), the GI50 was 0.32 µM in experiment [1]; 0.213 µM in experiment [2]; 0.739 µM in experiment [3]; 0.213 µM in experiment [4]; 0.464 µM in experiment [5]; 0.193 µM in experiment [6]. The GI50 in [7] is 0.331 µM; in experiment [8] it was 0.239 µM; in [9], 0.262 µM; in [10], 0.205 µM. The TGI in [1] was found to be 1.19 µM; in experiment [2], 2.5 µM; in [3], 2.15 µM; in experiment [4], 1.89 µM; in [5], 5.32 µM; in experiment [6], 1.13 µM. The values for the TGI in experiment [8], in experiment [9] and in experiment [10] were 2.07 µM, 1.77 µM and 1.25 µM, respectively.
Take `Cc1[nH]c2ccccc2c1C1=CC(=O)C=CC1=O`: the GI50 in [1] is 10.4 µM; in experiment [2], 5.66 µM; in [3], 12 µM; in experiment [4] it was 10.9 µM; in [5] it was 12.9 µM; in experiment [6], 16.4 µM. For the same molecule, the GI50 in [7] was 10.6 µM; in [8], 14.5 µM; in experiment [9] it was 9.77 µM; in experiment [10], 13 µM. In addition, the TGI was 23.4 µM in experiment [1]; 22.6 µM in [2]; 25.3 µM in [3]; 27.1 µM in [4]; 29.2 µM in experiment [5]; 41 µM in experiment [6]. Besides, the TGI in experiment [7] is 22.9 µM; in [8] it was 33.5 µM; in [9] it was 22.3 µM; in [10], 26.3 µM.
On to `NCC(=O)NC(CO)C(=O)O` (centres undefined), for which the TGI in experiment [1], in experiment [2], in [3], in [4], in experiment [5] and in [6] was more than 100 µM throughout. The TGI in experiment [7], in experiment [8], in experiment [9] and in [10] was more than 100 µM in each case.
Consider `O=[N+]([O-])c1ccc(NN=C2c3ccccc3Cc3ccccc32)c([N+](=O)[O-])c1`, for which the TGI in experiment [1], in [2], in [3], in experiment [4], in experiment [5] and in experiment [6] was more than 100 µM each time. Further, the TGI in experiment [7], in experiment [8], in experiment [9] and in experiment [10] was more than 100 µM in each case.
For `COc1ccc(NC(=O)CC(=O)n2nc(-c3ccccc3)c(N=Nc3ccccc3C)c2-c2ccccc2)cc1`, the TGI in experiment [1] was 46.6 µM; in experiment [2], more than 64.8 µM; in experiment [3] it was more than 86.5 µM; in experiment [4] it was more than 61.3 µM; in experiment [5], more than 100 µM; in experiment [6], 45.6 µM. Also, the TGI in experiment [7] was 33.4 µM; in experiment [8], 36.3 µM; in [9], more than 100 µM; in [10], 34.9 µM.
Take `O=C(O)C1CCCCC1C(=O)Nc1nc2ccccc2[nH]1` (centres undefined): the TGI in [1], in experiment [2], in experiment [3], in experiment [4], in [5] and in experiment [6] was more than 100 µM each time. The TGI in [7], in experiment [8], in experiment [9] and in experiment [10] was more than 100 µM each time.
Consider `COc1cccc2cc(-c3nc(C4CCC(C(=O)O)CC4)n4ncnc(N)c34)[nH]c12` (centres undefined), for which the GI50 in experiment [1] was 0.18 µM and 0.188 µM; in experiment [2], 0.33 µM and 0.326 µM; in experiment [3], 0.313 µM and 0.79 µM; in [4], 0.558 µM and 0.973 µM; in experiment [5] it was 0.39 µM and 0.348 µM; in experiment [6] it was 0.233 µM and 0.647 µM. Moreover, the GI50 was 0.186 µM and 0.299 µM in [7]; 0.223 µM and 0.278 µM in [8]; 0.368 µM and 0.825 µM in [9]; 0.0158 µM and 0.0327 µM in experiment [10]. Further, the TGI was 1.51 µM and 1.83 µM in experiment [1]; 2.79 µM and 3.99 µM in [2]; 4.19 µM and 5.7 µM in experiment [3]; more than 100 µM in experiment [4]; 23.5 µM and > 10 µM in experiment [5]; 2.1 µM and 4.36 µM in experiment [6]. Also, the TGI was 0.954 µM and 3.27 µM in experiment [7]; 1.75 µM and 2.21 µM in experiment [8]; 4.85 µM and > 10 µM in experiment [9]; 0.0988 µM and 0.358 µM in experiment [10].
On to `CC(C)NCCCCCNc1cc(O)cc2cccnc12`, for which the GI50 in experiment [1] was more than 100 µM; in experiment [2], more than 100 µM; in [3], 98.1 µM; in [4] it was more than 100 µM; in experiment [5], 4.78 µM; in [6], more than 100 µM. Moreover, the GI50 in experiment [7] was more than 100 µM; in experiment [8] it was more than 100 µM; in experiment [9], more than 100 µM; in [10], 6.89 µM. In addition, the TGI in experiment [1], in [2], in experiment [3], in [4], in [5] and in [6] was more than 100 µM each time. The TGI in [7], in [8], in experiment [9] and in experiment [10] was more than 100 µM in each case.
